Measured values from patent EP4574152A1, “POTASSIUM CHANNEL ACTIVATORS FOR USE IN THE TREATMENT OF EPILEPTIC DISORDERS” (Fraunhofer-Gesellschaft zur Förderung der angewandten …, priority 2023, dated 2025).
Where two headings read alike, the source gives them in different places.

Experiments:
PTZ-induced seizures = PTZ-induced seizures in mice; assay type: in vivo, C57BL/6J mice; details: for ED50: Mus musculus, ip; for ED50 Values (mg/Kg) Clonus / ED50 Values (mg/Kg) Tonus: i.p.
Experimental: (§1) JNJ-37822681 was tested in two animal models of acute seizures widely used for the evaluation of new ASMs: 1. a mouse model of generalized myoclonic seizures such as acute exposure to the GABAA receptor antagonist pentylenetetrazol (PTZ); 2. audiogenic seizures induced in genetically epilepsy-prone DBA/2 mice.
(§2) In both animal models, retigabine or JNJ-37822681 were administered i.p, 30 minutes before seizures induction with PTZ or sounds.

Kv7.3 A315T [1] = target: T1, Kv7.3 A315T (Homo sapiens, UniProt O43525, A315T); assay: fluorescence-based thallium flux assay (FluxOR) in CHO cells stably transfected with Kv7.3 A315T; assay type: cell-based; details: for maximum activities: relative to retigabine
T1 construct: expressed in transfected cells; host or cells: CHO, transient
From the text: The Fraunhofer repurposing library was initially screened in a cellular model represented by Chinese hamster ovary cells (CHO) stably transfected with a variant of the Kv7.3 channel (carrying the mutation A315T to enhance current size and increase the signal-to-noise ratio). The Kv7.3 A315T cell line was used in a fluorescence-based thallium flux assay (FluxOR, Thermofisher) optimized as a read-out for Kv7 channel function, using retigabine as a positive control.
Compounds in the Fraunhofer repurposing library were tested in Kv7.3 A315T-expressing cells at 10 µM and their Kv7 opening effect was compared to that observed with 10 µM retigabine.

audiogenic seizures = audiogenic seizures in DBA/2 mice; assay type: in vivo; details: limits in brackets; for ED50: Mus musculus, ip; for ED50 Values (mg/Kg) Clonus / ED50 Values (mg/Kg) Tonus / ED50 Values (mg/Kg) Wild Running: i.p.
Experimental: as §1, §2

Kv7.3 A315T [2] = target: T1, Kv7.3 A315T; assay: whole-cell patch-clamp in CHO cells transiently transfected with Kv7.3 A315T cDNA; assay type: cell-based
Experimental: (§3) JNJ-37822681 efficacy in opening Kv7 channels was further investigated through the whole-cell patch-clamp electrophysiological technique, the gold standard technique for investigating ion channels activity and pharmacological modulation.
In order to better evaluate the quantitative differences occurring in Kv7-opening ability between retigabine, and JNJ-37822681, dose-response experiments (0.01-30 µM) were performed to calculate EC50s using the functional parameters of ΔV1/2 (Figure 1C).

Kv7.2+Kv7.3 channels = target: T2, Kv7.2+Kv7.3 channels (Homo sapiens, UniProt O43525+O43526); assay: whole-cell patch-clamp in CHO cells expressing Kv7.2+Kv7.3 channels; assay type: cell-based; details: calculated from dose-response curves, Kv7.2/7.3 currents
T2 construct: expressed in transfected cells; host or cells: CHO
From the text: as §3

[3] = target: T3, Kv7.2 channels carrying the W236L mutation (Homo sapiens, UniProt O43526, W236L); assay: patch-clamp on homomeric Kv7.2 channels carrying the W236L mutation; assay type: cell-based; details: 10 µM
T3 construct: expressed in transfected cells

[4] = 30 minutes before seizures induction with PTZ, limits in brackets
[5] = 30 minutes before seizures induction with sounds

`Fc1ccc(CN2CCC(Nc3ccc(C(F)(F)F)nn3)CC2)cc1F` [JNJ-37822681, N-[1-[(3,4-difluorophenyl)methyl]-4-piperidinyl]-6-(trifluoromethyl)-3-pyridazinamine] was tested, and the ED50 (PTZ-induced seizures; 30 minutes before seizures induction with PTZ, limits in brackets, read-out: ED50 Values (mg/Kg) Clonus) was 15 mg/kg, the ED50 (PTZ-induced seizures; 30 minutes before seizures induction with PTZ, limits in brackets, read-out: ED50 Values (mg/Kg) Tonus) was 9 mg/kg and the “ED50 Values (mg/Kg) Clonus” value (PTZ-induced seizures; [4]) was 15 (12-18) mg/Kg. For the same molecule, the “ED50 Values (mg/Kg) Tonus” value (PTZ-induced seizures; [4]) was 9 (6-13) mg/Kg, the maximum activities (Kv7.3 A315T [1]; FluxOR assay) was 83.8% and the EC50 (Kv7.3 A315T [1]; FluxOR assay, ten-point dose-response curve from 0.5 nM to 10 µM, read-out: EC50) was 140 nM. The ED50 (audiogenic seizures; 30 minutes before seizures induction with sounds, read-out: ED50 Values (mg/Kg) Clonus) was 6 mg/kg, the ED50 (audiogenic seizures; 30 minutes before seizures induction with sounds, read-out: ED50 Values (mg/Kg) Tonus) was 3 mg/kg and the ED50 (audiogenic seizures; 30 minutes before seizures induction with sounds, read-out: ED50 Values (mg/Kg) Wild Running) was 11 mg/kg. For the same molecule, the “ED50 Values (mg/Kg) Clonus” value (audiogenic seizures; [5]) was 6 (5-9) mg/Kg, the “ED50 Values (mg/Kg) Tonus” value (audiogenic seizures; [5]) was 3 (2-5) mg/Kg and the “ED50 Values (mg/Kg) Wild Running” value (audiogenic seizures; [5]) was 11 (8-13) mg/Kg. For the same molecule, the EC50 (Kv7.3 A315T [2]; calculated from ΔV1/2, dose-response 0.01-30 µM, read-out: EC50) was 2000 ± 30 nM, the “maximal ΔV1/2” value (Kv7.3 A315T [2]; dose-response 0.01-30 µM) was 37.0±5.4 mV and the “leftward shift of the channel voltage-dependence of activation (ΔV1/2)” value (Kv7.3 A315T [2]; perfusion with 1 µM) was “qualitatively similar effects”. The EC50 (Kv7.2+Kv7.3 channels) was 1200 ± 300 nM and the “activation of Kv7.2 channels carrying the W236L mutation” value [3] was “failed to activate”.

With `CCOC(=O)Nc1ccc(NCc2ccc(F)cc2)cc1N` [retigabine, reference compound] the ED50 (PTZ-induced seizures; read-out: ED50 Values (mg/Kg) Clonus) was 13 mg/kg, the ED50 (PTZ-induced seizures; read-out: ED50 Values (mg/Kg) Tonus) was 9 mg/kg and the “ED50 Values (mg/Kg) Clonus” value (PTZ-induced seizures; [4]) was 13 (9.2-18.5) mg/Kg. The “ED50 Values (mg/Kg) Tonus” value (PTZ-induced seizures; [4]) was 9 (7-12) mg/Kg, the EC50 (Kv7.3 A315T [1]) was 300 nM and the maximum activities (Kv7.3 A315T [1]; FluxOR assay) was 100%. It also gave an ED50 (audiogenic seizures; read-out: ED50 Values (mg/Kg) Clonus, i.p., 30 minutes before seizures induction with sounds) of 7 mg/kg, an ED50 (audiogenic seizures; read-out: ED50 Values (mg/Kg) Tonus, i.p., 30 minutes before seizures induction with sounds) of 4.6 mg/kg and an ED50 (audiogenic seizures; read-out: ED50 Values (mg/Kg) Wild Running, i.p., 30 minutes before seizures induction with sounds) of 12 mg/kg. The “ED50 Values (mg/Kg) Clonus” value (audiogenic seizures; [5]) was 6.9 (4.3-11) mg/Kg, the “ED50 Values (mg/Kg) Tonus” value (audiogenic seizures; [5]) was 4.6 (3.6-6) mg/Kg and the “ED50 Values (mg/Kg) Wild Running” value (audiogenic seizures; [5]) was 12.4 (9-17.3) mg/Kg. The EC50 (Kv7.3 A315T [2]) was 600 ± 100 nM.
